This assay concerns the target T1, untagged form of the CRD (human dectin-2) (Homo sapiens, UniProt Q6EIG7).
T1 construct: gene CLEC6A; extended C-type carbohydrate-recognition domain starting at Leu-64, preceded by Met-Ala; untagged; one monomer in the asymmetric unit
T1 sequence (Q6EIG7 64-209): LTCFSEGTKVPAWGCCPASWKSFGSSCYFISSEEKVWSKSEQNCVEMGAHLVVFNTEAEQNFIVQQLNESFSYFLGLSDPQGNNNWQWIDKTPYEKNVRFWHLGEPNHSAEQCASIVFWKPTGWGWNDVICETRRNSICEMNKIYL
Kind of assay: X-ray crystallography, […] Å. It is filed as binding. As to conditions: pH 8.0, Ca2+; primary Ca2+ site plus adjacent secondary site; D1 and D2 branches at 50% occupancy each.

Structures are written as SMILES.

We go through one compound from publication PMC5555199, “Mechanism of pathogen recognition by human dectin-2” (The Journal of Biological Chemistry, 2017).

Take `CC(=O)N[C@H]1[C@H](O[C@H]2[C@H](O)[C@@H](NC(C)=O)C(O)O[C@@H]2CO)O[C@H](CO)[C@@H](O[C@@H]2O[C@H](CO[C@H]3O[C@H](CO[C@H]4O[C@H](CO)[C@@H](O)[C@H](O)[C@@H]4O[C@H]4O[C@H](CO)[C@@H](O)[C@H](O)[C@@H]4O)[C@@H](O)[C@H](O[C@H]4O[C@H](CO)[C@@H](O)[C@H](O)[C@@H]4O[C@H]4O[C@H](CO)[C@@H](O)[C@H](O)[C@@H]4O)[C@@H]3O)[C@@H](O)[C@H](O[C@H]3O[C@H](CO)[C@@H](O)[C@H](O)[C@@H]3O[C@H]3O[C@H](CO)[C@@H](O)[C@H](O)[C@@H]3O[C@H]3O[C@H](CO)[C@@H](O)[C@H](O)[C@@H]3O)[C@@H]2O)[C@@H]1O` (stereo partly shown) [Man9GlcNAc2]: the “X-ray crystallography, 2.4 Å” value is given as “crystals obtained with the untagged form of the CRD in combination with Man9GlcNAc2 oligosaccharide”.
